Laboratory results published in patent US10981916B2, “Substituted pyrazolopyrimidinone compounds as PDE2 inhibitors” (DART NEUROSCIENCE, LLC, priority 2016, dated 2021).

Biological target: PDE2A (Homo sapiens (Human), UniProt O00408)
Experiment: IMAP TR-FRET PDE2A enzymatic assay
Format: biochemical
Details: FLAG-tagged PDE2A1 (amino acids 2-941), 200 nM FAM-cAMP substrate, 11-point half-log dose-response; for IC50: read-out: PDE2 (pIC50) (converted)
Excerpt: An IMAP TR-FRET-based phosphodiesterase assay was developed using the PDE2A isoform. IMAP technology is based on high-affinity binding of phosphate by immobilized metal (MIII) coordination complexes on nanoparticles. The IMAP “binding reagent” recognizes phosphate groups on AMP or GMP generated from cAMP or cGMP in a PDE reaction. Cyclic nucleotides that carry a phosphodiester bond and not a free phosphate are not recognized by the binding reagent. The time resolved fluorescence resonance energy transfer (TR-FRET) is afforded by a Terbium (Tb)-Donor pre-bound to the nanoparticles. FRET occurs when the fluorescent-labeled AMP or GMP product of a PDE reaction binds and comes into close proximity to the Tb-Donor complex. Due to the long lifetime of Tb fluorescence, detection can be run in time-resolved mode to reduce or eliminate interference from auto-fluorescent compounds.
The IMAP TR-FRET PDE2A assay was performed in 1536-well white plates. A total of 250 pg per well of FLAG-tagged PDE2A 1 (amino acids 2-941) was dispensed in 2.5 μL IMAP assay buffer consisting of 10 mM Tris pH 7.2, 10 mM MgCl2, 1 mM DTT, and 0.1% fatty acid free BSA. 30 nL of compound was then added from 1 mM stocks in DMSO using a Kalypsys Pintool. Plates were incubated for 5 min at room temperature before dispensing 1.5 μL of 533 nM FAM-cAMP substrate for a final concentration of 200 nM. Following a brief centrifugation, plates were incubated for 30 min at room temperature. The assay was terminated by adding 5 μL IMAP binding reagent Tb complex to each well which was prepared according to manufacturer's recommendations (Molecular Devices). Plates were incubated an additional 120 minutes at room temperature and read on a Viewlux plate reader. All compounds were solvated at a concentration of 10 mM in DMSO and tested in 11-point half-log dose-response. Curve fitting and IC50 values were determined using a standard four parameter fit.

Chain of PDE2A (O00408 2-941): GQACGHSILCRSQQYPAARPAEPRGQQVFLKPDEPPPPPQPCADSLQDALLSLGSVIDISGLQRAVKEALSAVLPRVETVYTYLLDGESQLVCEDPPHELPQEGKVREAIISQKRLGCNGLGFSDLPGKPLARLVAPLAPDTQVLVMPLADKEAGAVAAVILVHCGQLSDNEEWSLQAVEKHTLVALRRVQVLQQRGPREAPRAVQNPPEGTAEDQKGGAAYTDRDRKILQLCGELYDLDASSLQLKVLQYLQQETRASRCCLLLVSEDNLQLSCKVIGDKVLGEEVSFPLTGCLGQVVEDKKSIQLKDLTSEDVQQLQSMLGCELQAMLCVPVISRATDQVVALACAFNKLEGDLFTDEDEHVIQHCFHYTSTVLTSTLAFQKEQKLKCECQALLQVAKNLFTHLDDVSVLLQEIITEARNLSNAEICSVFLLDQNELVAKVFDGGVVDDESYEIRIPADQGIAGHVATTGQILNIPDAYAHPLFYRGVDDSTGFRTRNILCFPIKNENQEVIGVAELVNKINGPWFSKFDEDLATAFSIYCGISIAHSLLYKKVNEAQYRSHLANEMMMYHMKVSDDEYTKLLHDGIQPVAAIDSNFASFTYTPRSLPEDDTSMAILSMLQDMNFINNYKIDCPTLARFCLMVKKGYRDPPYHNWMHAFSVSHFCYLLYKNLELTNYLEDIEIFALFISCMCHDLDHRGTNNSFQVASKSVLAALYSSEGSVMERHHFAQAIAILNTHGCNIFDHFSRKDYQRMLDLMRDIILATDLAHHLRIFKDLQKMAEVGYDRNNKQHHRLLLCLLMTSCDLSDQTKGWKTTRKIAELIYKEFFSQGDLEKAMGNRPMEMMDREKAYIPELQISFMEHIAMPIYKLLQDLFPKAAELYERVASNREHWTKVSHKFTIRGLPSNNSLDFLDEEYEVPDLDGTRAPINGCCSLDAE

CCC(c1ccc(C(F)(F)F)nc1)n1nc(C2CC2)c2c(=O)[nH]c(Cc3ccc(OC)cn3)nc21 (stereo not shown) [Example 1, 3-cyclopropyl-6-[(5-methoxypyridin-2-yl)methyl]-1-{1-[6-(trifluoromethyl)pyridin-3-yl]propyl}-1H,4H,5H-pyrazolo[3,4-d]pyrimidin-4-one]
PDE2 (pIC50): >7

COc1ccc(Cc2nc3c(c(C4CC4)nn3C(C)c3ccc(C(F)(F)F)nc3)c(=O)[nH]2)nc1 (stereo not shown) [Example 2, 3-cyclopropyl-6-[(5-methoxypyridin-2-yl)methyl]-1-{1-[6-(trifluoromethyl)pyridin-3-yl]ethyl}-1H,4H,5H-pyrazolo[3,4-d]pyrimidin-4-one]
PDE2 (pIC50): >7

CCC(c1ccc(C(F)(F)F)nc1)n1nc(C2CC2)c2c(=O)[nH]c(C)nc21 (stereo not shown) [Example 3, 3-cyclopropyl-6-methyl-1-{1-[6-(trifluoromethyl)pyridin-3-yl]propyl}-1H,4H,5H-pyrazolo[3,4-d]pyrimidin-4-one]
IC50: 100 to 1000 nM

CCC(c1ccc(C(F)(F)F)nc1)n1nc(C2CCC2)c2c(=O)[nH]c(C)nc21 (stereo not shown) [Example 4, 3-cyclobutyl-6-methyl-1-{1-[6-(trifluoromethyl)pyridin-3-yl]propyl}-1H,4H,5H-pyrazolo[3,4-d]pyrimidin-4-one]
IC50: > 10000 nM

COc1ccc(Cc2nc3c(c(C4CC4)nn3[C@@H](C)c3ccc(C(F)(F)F)nc3)c(=O)[nH]2)nc1 [Example 5, 3-cyclopropyl-6-[(5-methoxypyridin-2-yl)methyl]-1-[(1S)-1-[6-(trifluoromethyl)pyridin-3-yl]ethyl]-1H,4H,5H-pyrazolo[3,4-d]pyrimidin-4-one]
PDE2 (pIC50): >7

COc1ccc(Cc2nc3c(c(C4CC4)nn3[C@H](C)c3ccc(C(F)(F)F)nc3)c(=O)[nH]2)nc1 [Example 6, 3-cyclopropyl-6-[(5-methoxypyridin-2-yl)methyl]-1-[(1R)-1-[6-(trifluoromethyl)pyridin-3-yl]ethyl]-1H,4H,5H-pyrazolo[3,4-d]pyrimidin-4-one]
IC50: 100 to 1000 nM

CC(c1ccc(C(F)(F)F)nc1)n1nc(C2CC2)c2c(=O)[nH]c(Cc3ccc(F)cn3)nc21 (stereo not shown) [Example 7, 3-cyclopropyl-6-[(5-fluoropyridin-2-yl)methyl]-1-{1-[6-(trifluoromethyl)pyridin-3-yl]ethyl}-1H,4H,5H-pyrazolo[3,4-d]pyrimidin-4-one]
IC50: 100 to 1000 nM

CCC(c1ccc(C(F)(F)F)nc1)n1nc(C2CC2)c2c(=O)[nH]c(Cc3ccc(F)cn3)nc21 (stereo not shown) [Example 8, 3-cyclopropyl-6-[(5-fluoropyridin-2-yl)methyl]-1-{1-[6-(trifluoromethyl)pyridin-3-yl]propyl}-1H,4H,5H-pyrazolo[3,4-d]pyrimidin-4-one]
PDE2 (pIC50): >7

CCC(c1ccc(C(F)(F)F)cn1)n1nc(C2CC2)c2c(=O)[nH]c(C)nc21 (stereo not shown) [Example 9, 3-cyclopropyl-6-methyl-1-{1-[5-(trifluoromethyl)pyridin-2-yl]propyl}-1H,4H,5H-pyrazolo[3,4-d]pyrimidin-4-one]
PDE2 (pIC50): >7

Cc1nc2c(c(C3CC3)nn2C(C)c2ccc(C(F)(F)F)cc2)c(=O)[nH]1 (stereo not shown) [Example 10, 3-cyclopropyl-6-methyl-1-{1-[4-(trifluoromethyl)phenyl]ethyl}-1H,4H,5H-pyrazolo[3,4-d]pyrimidin-4-one]
PDE2 (pIC50): >7

Cc1nc2c(c(C3CC3)nn2C(C)c2ccc(C(F)(F)F)cn2)c(=O)[nH]1 (stereo not shown) [Example 11, 3-cyclopropyl-6-methyl-1-{1-[5-(trifluoromethyl)pyridin-2-yl]ethyl}-1H,4H,5H-pyrazolo[3,4-d]pyrimidin-4-one]
PDE2 (pIC50): >7

Cc1nc2c(c(C3CC3)nn2C(C)c2ccc(C(F)(F)F)nc2)c(=O)[nH]1 (stereo not shown) [Example 12, 3-cyclopropyl-6-methyl-1-{1-[6-(trifluoromethyl)pyridin-3-yl]ethyl}-1H,4H,5H-pyrazolo[3,4-d]pyrimidin-4-one]
PDE2 (pIC50): >7

Cc1nc2c(c(C3CC3)nn2[C@H](C)c2ccc(C(F)(F)F)nc2)c(=O)[nH]1 [Example 14, 3-cyclopropyl-6-methyl-1-[(1R)-1-[6-(trifluoromethyl)pyridin-3-yl]ethyl]-1H,4H,5H-pyrazolo[3,4-d]pyrimidin-4-one]
IC50: 1000 to 10000 nM

C[C@@H](c1ccc(C(F)(F)F)nc1)n1nc(C2CC2)c2c(=O)[nH]c(Cc3ccc(F)cn3)nc21 [Example 15, 3-cyclopropyl-6-[(5-fluoropyridin-2-yl)methyl]-1-[(1S)-1-[6-(trifluoromethyl)pyridin-3-yl]ethyl]-1H,4H,5H-pyrazolo[3,4-d]pyrimidin-4-one]
IC50: 100 to 1000 nM

C[C@H](c1ccc(C(F)(F)F)nc1)n1nc(C2CC2)c2c(=O)[nH]c(Cc3ccc(F)cn3)nc21 [Example 16, 3-cyclopropyl-6-[(5-fluoropyridin-2-yl)methyl]-1-[(1R)-1-[6-(trifluoromethyl)pyridin-3-yl]ethyl]-1H,4H,5H-pyrazolo[3,4-d]pyrimidin-4-one]
PDE2 (pIC50): <5

CC[C@@H](c1ccc(C(F)(F)F)nc1)n1nc(C2CC2)c2c(=O)[nH]c(Cc3ccc(OC)cn3)nc21 [Example 17, 3-cyclopropyl-6-[(5-methoxypyridin-2-yl)methyl]-1-[(1S)-1-[6-(trifluoromethyl)pyridin-3-yl]propyl]-1H,4H,5H-pyrazolo[3,4-d]pyrimidin-4-one]
PDE2 (pIC50): >7

CC[C@H](c1ccc(C(F)(F)F)nc1)n1nc(C2CC2)c2c(=O)[nH]c(Cc3ccc(OC)cn3)nc21 [Example 18, 3-cyclopropyl-6-[(5-methoxypyridin-2-yl)methyl]-1-[(1R)-1-[6-(trifluoromethyl)pyridin-3-yl]propyl]-1H,4H,5H-pyrazolo[3,4-d]pyrimidin-4-one]
PDE2 (pIC50): <5

CC[C@@H](c1ccc(C(F)(F)F)nc1)n1nc(C2CC2)c2c(=O)[nH]c(C)nc21 [Example 19, 3-cyclopropyl-6-methyl-1-[(1S)-1-[6-(trifluoromethyl)pyridin-3-yl]propyl]-1H,4H,5H-pyrazolo[3,4-d]pyrimidin-4-one]
PDE2 (pIC50): >7

CC[C@H](c1ccc(C(F)(F)F)nc1)n1nc(C2CC2)c2c(=O)[nH]c(C)nc21 [Example 20, 3-cyclopropyl-6-methyl-1-[(1R)-1-[6-(trifluoromethyl)pyridin-3-yl]propyl]-1H,4H,5H-pyrazolo[3,4-d]pyrimidin-4-one]
IC50: 1000 to 10000 nM

CC[C@@H](c1ccc(C(F)(F)F)nc1)n1nc(C2CC2)c2c(=O)[nH]c(Cc3ccc(F)cn3)nc21 [Example 21, 3-cyclopropyl-6-[(5-fluoropyridin-2-yl)methyl]-1-[(1S)-1-[6-(trifluoromethyl)pyridin-3-yl]propyl]-1H,4H,5H-pyrazolo[3,4-d]pyrimidin-4-one]
PDE2 (pIC50): >7

CC[C@H](c1ccc(C(F)(F)F)nc1)n1nc(C2CC2)c2c(=O)[nH]c(Cc3ccc(F)cn3)nc21 [Example 22, 3-cyclopropyl-6-[(5-fluoropyridin-2-yl)methyl]-1-[(1R)-1-[6-(trifluoromethyl)pyridin-3-yl]propyl]-1H,4H,5H-pyrazolo[3,4-d]pyrimidin-4-one]
IC50: 1000 to 10000 nM

CC[C@@H](c1ccc(C(F)(F)F)cn1)n1nc(C2CC2)c2c(=O)[nH]c(C)nc21 [Example 23, 3-cyclopropyl-6-methyl-1-[(1S)-1-[5-(trifluoromethyl)pyridin-2-yl]propyl]-1H,4H,5H-pyrazolo[3,4-d]pyrimidin-4-one]
PDE2 (pIC50): >7

CC[C@H](c1ccc(C(F)(F)F)cn1)n1nc(C2CC2)c2c(=O)[nH]c(C)nc21 [Example 24, 3-cyclopropyl-6-methyl-1-[(1R)-1-[5-(trifluoromethyl)pyridin-2-yl]propyl]-1H,4H,5H-pyrazolo[3,4-d]pyrimidin-4-one]
IC50: 1000 to 10000 nM

Cc1nc2c(c(C3CC3)nn2[C@@H](C)c2ccc(C(F)(F)F)cn2)c(=O)[nH]1 [Example 25, 3-cyclopropyl-6-methyl-1-[(1S)-1-[5-(trifluoromethyl)pyridin-2-yl]ethyl]-1H,4H,5H-pyrazolo[3,4-d]pyrimidin-4-one]
PDE2 (pIC50): >7

Cc1nc2c(c(C3CC3)nn2[C@H](C)c2ccc(C(F)(F)F)cn2)c(=O)[nH]1 [Example 26, 3-cyclopropyl-6-methyl-1-[(1R)-1-[5-(trifluoromethyl)pyridin-2-yl]ethyl]-1H,4H,5H-pyrazolo[3,4-d]pyrimidin-4-one]
IC50: 1000 to 10000 nM
